Data published in patent publication US12527774B2, “Estrogen-related receptor alpha modulators” (LEAD PHARMA HOLDING B.V., priority 2019, dated 2026).

target: ERRα ligand binding domain (ERRα-LBD) (Homo sapiens (Human), UniProt P11474); experiment: ERRα AlphaScreen Assay; type: biochemical; conditions: disruption of binding of ERRα-LBD protein to biotin-PGC1α-3 co-activator peptide
Description: This assay was based on the knowledge that nuclear receptors interact with cofactors in a ligand dependent matter. The sites of interaction have been mapped to LXXLL motifs that are present in the co-activator sequences. Short peptide sequences that contain the LXXLL motif mimic the behavior of full length co-activators.
The ERRα AlphaScreen Assay described here relies on the interaction of the co-activator peptide with purified bacterial-expressed ERRα ligand binding domain (ERRα-LBD); upon ligand binding the ERRα protein can undergo a conformational change resulting in a loss of co-activator binding.
Compounds of the present invention were tested for their ability to disrupt binding of ERRα-LBD protein to co-activator peptide using AlphaScreen® Technology (Perkin Elmer). ERRα-LBD protein was expressed in E. coli as a 6×His Small Ubiquitin-like Modifier (SUMO) fusion. Bacterial expressed 6His-SUMO-ERRα-LBD protein was purified using affinity chromatography. All experiments were performed at room temperature in 384-well white non-binding plates (Greiner) using 50 mM Tris-HCl pH 7.5, 100 mM NaCl, 0,1% Pluronic F-127, 0.05% BSA and 5 mM TCEP as the buffer. Final DMSO concentration was 1% in the assay. Compounds were assayed in triplicate and: incubated with 0.81 nM ERRα-LBD protein and 10 μg/mL streptavidin donor beads and 10 μg/mL Ni-chelate acceptor beads for 1 hour at room temperature; followed by a 2-hour incubation with 15 nM biotin-PGC1α-3 peptide (QRRPCSELLKYLTTNDDPP) corresponding to amino acids 202 to 220.
The AlphaScreen signal was measured using an Envision Xcite plate reader (Perkin Elmer). Data was normalized, and curve fitting analysis was performed in GraphPad Prism 7 using a four-parameter dose-response fit.
As multiple IC50 values were annotated for the same compound-protein pair, a mean pIC50 for each compound was determined.

ERRα ligand binding domain (ERRα-LBD), sequence (P11474 193-421): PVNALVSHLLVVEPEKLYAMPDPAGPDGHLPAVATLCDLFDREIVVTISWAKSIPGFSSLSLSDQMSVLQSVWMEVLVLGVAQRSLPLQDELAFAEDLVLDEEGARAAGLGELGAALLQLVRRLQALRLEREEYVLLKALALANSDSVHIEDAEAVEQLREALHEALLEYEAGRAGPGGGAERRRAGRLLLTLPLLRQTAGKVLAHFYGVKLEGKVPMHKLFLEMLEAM

mean pIC50	Compound
≥ 8	COc1cc(C2CC(=O)Nc3[nH]nnc32)ccc1OCc1ccccc1C(F)(F)F (stereo not drawn) [Example 90, 7-(3-methoxy-4-{[2-(trifluoromethyl)phenyl]methoxy}phenyl)-3H,4H,5H,6H, 7H-[1,2,3]triazolo[4,5-b]pyridin-5-one]

same assay, conditions: disruption of binding of ERRα-LBD protein to biotin-PGC1α-3 co-activator peptide; read-out: mean pIC50 (converted)

Compound	IC50 [nM]
CCc1cc(C2CC(=O)Nc3n[nH]cc32)ccc1OCc1ccccc1C(F)(F)F (stereo not drawn) [Example 71, 4-(3-ethyl-4-{[2-(trifluoromethyl)phenyl]methoxy}phenyl)-2H,4H,5H,6H,7H-pyrazolo[3,4-b]pyridin-6-one]	10 to 100
COc1cc(C2CC(=O)Nc3n[nH]cc32)c(F)cc1OCc1ccccc1C(F)(F)F (stereo not drawn) [Example 75, 4-(2-fluoro-5-methoxy-4-{[2-(trifluoromethyl)phenyl]methoxy}phenyl)-2H,4H,5H, 6H, 7H-pyrazolo[3,4-b]pyridin-6-one]	10 to 100
COc1cc(C2CC(=O)Nc3n[nH]cc32)c(F)cc1OCc1cccc(F)c1C(F)(F)F (stereo not drawn) [Example 77, 4-(2-fluoro-4-{[3-fluoro-2-(trifluoromethyl)phenyl]methoxy}-5-methoxyphenyl)-2H,4H,5H,6H,7H-pyrazolo[3,4-b]pyridin-6-one]	100 to 1000
COc1cc(C2CC(=O)Nc3ccsc32)ccc1OCc1ccccc1Cl (stereo not drawn) [Example 79, 7-{4-[(2-chlorophenyl)methoxy]-3-methoxyphenyl}-4H,5H,6H, 7H-thieno[3,2-b]pyridin-5-one]	100 to 1000
COc1cc(C2CC(=O)Nc3n[nH]c(C)c32)ccc1OCc1ccccc1C(F)(F)F (stereo not drawn) [Example 82, 4-(3-methoxy-4-{[2-(trifluoromethyl)phenyl]methoxy}phenyl)-3-methyl-2H,4H,5H,6H,7H-pyrazolo[3,4-b]pyridin-6-one]	100 to 1000
COc1cc(C2CC(=O)N(C)c3n[nH]cc32)ccc1OCc1ccccc1C(F)(F)F (stereo not drawn) [Example 86, 4-(3-methoxy-4-{[2-(trifluoromethyl)phenyl]methoxy}phenyl)-7-methyl-2H,4H,5H,6H,7H-pyrazolo[3,4-b]pyridin-6-one]	100 to 1000
COc1cc(C2CC(=O)Nc3n[nH]c(F)c32)ccc1OCc1ccccc1C(F)(F)F (stereo not drawn) [Example 95, 3-fluoro-4-(3-methoxy-4-{[2-(trifluoromethyl)phenyl]methoxy}phenyl)-2H,4H,5H,6H, 7H-pyrazolo[3,4-b]pyridin-6-one]	100 to 1000
COc1cc(C2CC(=O)Nc3n[nH]cc32)ccc1OCc1ccc(C#N)cc1C(F)(F)F (stereo not drawn) [Example 105, 4-[(2-methoxy-4-{6-oxo-2H,4H,55H, 6H, 7H-pyrazolo[3,4-b]pyridin-4-yl}phenyl)methoxy]-3-(trifluoromethyl)benzonitrile]	10 to 100
O=C1CC(c2ccc(COc3ccccc3C(F)(F)F)c(OC(F)(F)F)c2)c2c[nH]nc2N1 (stereo not drawn) [Example 108, 4-[3-(trifluoromethoxy)-4-{[2-(trifluoromethyl)phenoxy]methyl}phenyl]-2H,4H,5H,6H,7H-pyrazolo[3,4-b]pyridin-6-one]	10 to 100
O=C1CC(c2ccc(COc3ccc(C(F)(F)F)cc3C(F)(F)F)c(OC(F)(F)F)c2)c2c[nH]nc2N1 (stereo not drawn) [Example 109, 4-(4-{[2,4-bis(trifluoromethyl)phenoxy]methyl}-3-(trifluoromethoxy)phenyl)-2H,4H,5H,6H,7H-pyrazolo[3,4-b]pyridin-6-one]	10 to 100
O=C1CC(c2ccc(COc3ccc(F)cc3C(F)(F)F)c(OC(F)(F)F)c2)c2c[nH]nc2N1 (stereo not drawn) [Example 110, 4-(4-{[4-fluoro-2-(trifluoromethyl)phenoxy]methyl}-3-(trifluoromethoxy)phenyl)-2H,4H,5H,6H, 7H-pyrazolo[3,4-b]pyridin-6-one]	100 to 1000
COc1cc(C2CC(=O)Nc3n[nH]cc32)ccc1COc1cc(C)cc(C)c1 (stereo not drawn) [Example 113, 4-{4-[(3,5-dimethylphenoxy)methyl]-3-methoxyphenyl}-2H,4H,5H,6H,7H-pyrazolo[3,4-b]pyridin-6-one]	100 to 1000
COc1cc(C2CC(=O)Nc3n[nH]cc32)ccc1COc1cc(C)cc(C(F)(F)F)c1 (stereo not drawn) [Example 114, 4-(3-methoxy-4-{[3-methyl-5-(trifluoromethyl)phenoxy]methyl}phenyl)-2H,4H,5H,6H,7H-pyrazolo[3,4-b]pyridin-6-one]	100 to 1000

Second part, the compound after the results:

IC50 [nM]	Compound
10 to 100	O=C1CC(c2ccc(OCc3ccccc3C(F)(F)F)c(Cl)c2)c2c[nH]nc2N1 (stereo not drawn) [Example 72, 4-(3-chloro-4-{[2-(trifluoromethyl)phenyl]methoxy}phenyl)-2H,4H,5H,6H, 7H-pyrazolo[3,4-b]pyridin-6-one]
10 to 100	Cc1cc(C2CC(=O)Nc3n[nH]cc32)ccc1OCc1ccccc1C(F)(F)F (stereo not drawn) [Example 73, 4-(3-methyl-4-{[2-(trifluoromethyl)phenyl]methoxy}phenyl)-2H,4H,5H,6H,7H-pyrazolo[3,4-b]pyridin-6-one]
10 to 100	O=C1CC(c2ccc(OCc3ccccc3C(F)(F)F)c(F)c2)c2c[nH]nc2N1 (stereo not drawn) [Example 74, 4-(3-fluoro-4-{[2-(trifluoromethyl)phenyl]methoxy}phenyl)-2H,4H,5H,6H, 7H-pyrazolo[3,4-b]pyridin-6-one]
100 to 1000	O=C1CC(c2ccc(OCc3ccccc3C(F)(F)F)c(C(F)(F)F)c2)c2c[nH]nc2N1 (stereo not drawn) [Example 76, 4-[3-(trifluoromethyl)-4-{[2-(trifluoromethyl)phenyl]methoxy}phenyl]-2H,4H,5H,6H, 7H-pyrazolo[3,4-b]pyridin-6-one]
100 to 1000	COc1cc(C2CC(=O)Nc3n[nH]cc32)cc(F)c1OCc1ccccc1C(F)(F)F (stereo not drawn) [Example 78, 4-(3-fluoro-5-methoxy-4-{[2-(trifluoromethyl)phenyl]methoxy}phenyl)-2H,4H,5H,6H, 7H-pyrazolo[3,4-b]pyridin-6-one]
100 to 1000	COc1cc(C2CC(=O)Nc3nn(C)cc32)ccc1OCc1ccccc1C(F)(F)F (stereo not drawn) [Example 80, 4-(3-methoxy-4-{[2-(trifluoromethyl)phenyl]methoxy}phenyl)-2-methyl-2H,4H,5H,6H,7H-pyrazolo[3,4-b]pyridin-6-one]
10 to 100	COc1cc(C2CC(=O)Nc3ccsc32)ccc1OCc1ccccc1C(F)(F)F (stereo not drawn) [Example 85, 7-(3-methoxy-4-{[2-(trifluoromethyl)phenyl]methoxy}phenyl)-4H,5H,6H, 7H-thieno[3,2-b]pyridin-5-one]
10 to 100	COc1cc(C2CC(=O)Nc3c[nH]nc32)ccc1OCc1ccccc1C(F)(F)F (stereo not drawn) [Example 87, 7-(3-methoxy-4-{[2-(trifluoromethyl)phenyl]methoxy}phenyl)-2H,4H,5H,6H, 7H-pyrazolo[4,3-b]pyridin-5-one]
100 to 1000	COc1cc(C2CC(=O)Nc3ncsc32)ccc1OCc1ccccc1C(F)(F)F (stereo not drawn) [Example 88, 7-(3-methoxy-4-{[2-(trifluoromethyl)phenyl]methoxy}phenyl)-4H,5H,6H,7H-[1,3]thiazolo[4,5-b]pyridin-5-one]
10 to 100	COc1ccc(COc2ccc(C3CC(=O)Nc4c[nH]nc43)cc2OC)c(C(F)(F)F)c1 (stereo not drawn) [Example 92, 7-(3-methoxy-4-{[4-methoxy-2-(trifluoromethyl)phenyl]methoxy}phenyl)-2H,4H,5H,6H,7H-pyrazolo[4,3-b]pyridin-5-one]
100 to 1000	COc1cc(C2CC(=O)Nc3c[nH]nc32)ccc1OCc1ccc(C(C)=O)cc1C(F)(F)F (stereo not drawn) [Example 94, 7-(4-{[4-acetyl-2-(trifluoromethyl)phenyl]methoxy}-3-methoxyphenyl)-2H,4H,5H,6H, 7H-pyrazolo[4,3-b]pyridin-5-one]
10 to 100	COc1cc(C2CC(=O)Nc3n[nH]cc32)ccc1COc1ccc(C)cc1C (stereo not drawn) [Example 111, 4-{4-[(2,4-dimethylphenoxy)methyl]-3-methoxyphenyl}-2H,4H,5H,6H,7H-pyrazolo[3,4-b]pyridin-6-one]
10 to 100	COc1cc(C2CC(=O)Nc3n[nH]cc32)ccc1COc1ccc(C(F)(F)F)cc1C (stereo not drawn) [Example 112, 4-(3-methoxy-4-{[2-methyl-4-(trifluoromethyl)phenoxy]methyl}phenyl)-2H,4H,5H,6H,7H-pyrazolo[3,4-b]pyridin-6-one]
10 to 100	COc1cc(C2CC(=O)Nc3n[nH]cc32)ccc1COc1ccc(C(F)F)cc1C(F)F (stereo not drawn) [Example 116, 4-(4-{[2,4-bis(difluoromethyl)phenoxy]methyl}-3-methoxyphenyl)-2H,4H,5H,6H,7H-pyrazolo[3,4-b]pyridin-6-one]
10 to 100	COc1cc(C2CC(=O)Nc3n[nH]cc32)ccc1COc1ccc(C(F)(F)F)cc1C(F)F (stereo not drawn) [Example 117, 4-(4-{[2-(difluoromethyl)-4-(trifluoromethyl)phenoxy]methyl}-3-methoxyphenyl)-2H,4H,5H,6H, 7H-pyrazolo[3,4-b]pyridin-6-one]
100 to 1000	COc1cc(C2CC(=O)Nc3n[nH]cc32)ccc1COc1cc(C(F)F)cc(C(F)(F)F)c1 (stereo not drawn) [Example 118, 4-(4-{[3-(difluoromethyl)-5-(trifluoromethyl)phenoxy]methyl}-3-methoxyphenyl)-2H,4H,5H,6H,7H-pyrazolo[3,4-b]pyridin-6-one]
